The test system of test [1] is Lettuce Lactuca sativa “volare”. The test can be described thus: Organosulfur compounds on lettuce, seed drench (Example 9). As to conditions: for Added harvest (weight) per plant compared to control (%) / Root formation (%) compared to control / Relative fresh weight/plant compared to control (%): seed drench, 1000× diluted emulsion; for Root formation (%) compared to control: control = 100; for Relative fresh weight/plant compared to control (%): control = emulsifier solution = 100; for Harvest: Fresh weight/plant: seeds drenched 10 minutes in 1000× diluted emulsion, 21 °C. It counts as in vivo. The procedure:
(§1) Experimental design. The bio-stimulatory effects of organosulfur compounds was tested on lettuce and sweet pepper (Capsicum annuum “Ritmico”). The tested compounds include di-n-propyl disulfide (GAS 629-19-6), di-n-propyl thiosulfonate (i.e., PTSO, CAS 1113-13-9), di-methyl thiosulfonate (GAS 2949-92-0), and di-phenyl thiosulfonate (Gas 1212-08-4). Di-methyl thiosulfonate and di-phenyl thiosulfonate were ordered from Adrich-Sigma. PTSO was purified as described in example 1. In order to obtain a stable and homogenous emulsion, the compounds were dissolved into an emulsifier solution (table 25) to assure that the crops are supplied with the defined solution. […] As examples herein, “PTSO Composition 5.2” refers to an agricultural composition comprising 5.2% PTSO and further comprises 59% emulsifier (propylene glycol and glyceryl polyethyleneglycol ricinoleate). “PTSO composition 5.2 Yuka” in an agricultural composition comprising 5.2% PTSO and 90.2% Yuka extract. “PTSO composition 5.2 Tween” in an agricultural composition comprising 5.2% PTSO, 30.1% Tween, 30.1% DMSO and 30% water.
(§2) The dosage of the test compounds was standardized on base of the molar dosage and the same molar dosage was administered as PTSO. Emulsions were prepared by adding the required amount of the compounds as indicated in table 25 in 100 ml volumes of 50% tween 80 and 50 ml DMSO. Hereafter, the volumes were supplemented to a final volume of 250 ml with the same mixture and incubation took place at an orbital shaker at 37° C. (30 minutes, 250 rpm).
Before seeding, the seeds of lettuce were drenched into 1000× diluted emulsions as indicated in table 25 and incubated for 10 minutes. Each treatment was performed in 4-fold. In table 26 the growth settings of lettuce and sweet peppers are summarized and in table 27 a summary of the realized growth conditions and crop harvest is presented of lettuce.

Test [2] relates to sweet pepper (Capsicum annuum “Ritmico”). The test can be described thus: Organosulfur compounds on sweet pepper, drip (Example 9). As to conditions: no fruits yet, preliminary. Format: in vivo. The procedure:
as §1, §2

SMILES strings stand for the structures.

For the compound `O=S(=O)(Sc1ccccc1)c1ccccc1` [Di-phenyl thiosulfonate, di-phenyl thiosulfonate], in test [1], the “Added harvest (weight) per plant compared to control (%)” value (“Added harvest (weight) per plant … (%)” below) is reported as 3%, the “Root formation (%) compared to control” value stood at 93.9%, the “Relative fresh weight/plant compared to control (%)” value (shortened to “Relative fresh weight/plant … (%)”) is listed as 103% and the “Harvest: Fresh weight/plant” value is recorded as 1.68. The “Size increase over control (%)” value in test [2] stood at 2.8%.
`CSS(C)(=O)=O` [Di-methyl thiosulfonate, di-methyl thiosulfonate]: in test [1], the “Added harvest (weight) per plant … (%)” value amounted to 20%, the “Root formation (%) compared to control” value amounted to 115%, the “Relative fresh weight/plant … (%)” value came out at 120% and the “Harvest: Fresh weight/plant” value is listed as 1.96. Moreover, the “Size increase over control (%)” value in test [2] was determined as 6.1%.
As to `CCCSS(=O)(=O)CCC` [PTSO, di-n-propyl thiosulfonate], in test [1], the “Added harvest (weight) per plant … (%)” value was found to be 13%, the “Root formation (%) compared to control” value worked out at 110%, the “Relative fresh weight/plant … (%)” value worked out at 113% and the “Harvest: Fresh weight/plant” value worked out at 1.84. Also, the “Size increase over control (%)” value in test [2] is 4.2%.
For `CCCSSCCC` [Di-propyl disulfide], in test [1], the “Added harvest (weight) per plant … (%)” value is 10%, the “Root formation (%) compared to control” value amounted to 109%, the “Relative fresh weight/plant … (%)” value amounted to 110% and the “Harvest: Fresh weight/plant” value is reported as 1.80. Also, the “Size increase over control (%)” value in test [2] turned out to be 2.8%.

(Values after patent US20240407361A1, “ORGANOSULFUR COMPOUNDS AS PLANT BIOSTIMULANTS” (AHV International B.V., priority 2021, published 2024).)
